Laboratory results: patent US8809372B2, “Pyridine derivatives” (Endo Pharmaceuticals, Inc., priority 2011, dated 2014)

How the values were obtained:
[1] = target: T1, human CYP17 in H295R adrenocortical carcinoma cells (Homo sapiens, UniProt P05093); experiment: Cell-based human CYP17 inhibition assay, H295R cells; settings: 16 hours, read-out: CYP17 (human H295R adrenal cells)
T1 construct: H295R Adrenocortical carcinoma cells [NCI-H295A, ATCC Number CRL-2128, American Type Culture Collection; host or cells: H295R adrenocortical carcinoma cells
T1 sequence (P05093 1-508): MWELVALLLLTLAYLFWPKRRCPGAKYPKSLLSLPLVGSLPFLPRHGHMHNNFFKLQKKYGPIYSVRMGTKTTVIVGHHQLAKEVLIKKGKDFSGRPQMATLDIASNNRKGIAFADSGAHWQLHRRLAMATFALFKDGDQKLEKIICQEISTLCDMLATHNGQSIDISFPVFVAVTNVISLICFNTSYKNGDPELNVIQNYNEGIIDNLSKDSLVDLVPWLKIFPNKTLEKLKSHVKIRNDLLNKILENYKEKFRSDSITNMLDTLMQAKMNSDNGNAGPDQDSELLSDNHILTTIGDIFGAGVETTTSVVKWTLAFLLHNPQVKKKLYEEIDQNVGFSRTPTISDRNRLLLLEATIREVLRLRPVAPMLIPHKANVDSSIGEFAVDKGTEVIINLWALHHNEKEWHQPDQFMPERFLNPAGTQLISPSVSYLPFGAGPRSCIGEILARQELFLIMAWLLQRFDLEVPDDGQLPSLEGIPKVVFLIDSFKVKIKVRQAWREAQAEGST
Protocol: Cell-Based Human CYP17 Inhibition Assay
1. H295R Adrenocortical Carcinoma Cells and Growth Media: The media for the H295R Adrenocortical carcinoma cells [NCI-H295A, ATCC Number CRL-2128, American Type Culture Collection, Manassas, Va., US] (500 mL) was a DMEM:F12 Mix 1:1 with 5% (2 mL) BD Nu Serum; 1% (5 mL) ITS+Premix [BD Biosciences] and 1% Penstrep. 2. LNCap-CYP17 Cells and Growth Media: Full length hCYP17a1 gene (NCBI Reference Sequence: NM_000102.3) was cloned in pcDNA3.1(+) vector between HindIII and XhoI site. The pcDNA3.1(+) vector contains the Neomycin resistance gene and was used for selection of stable cell line. The hCYP17a1 containing pcDNA3.1(+) was transfected into LNCap cells to create the LNCap-CYP17 cell line. The media for the LNCaP-CYP17 cells was RPMI 1640, 10% FBS, 1% PenStrep, Geneticin 400 μg/mL.
The H295R cells or LNCaP-hCYP17 cells were subcultured and 30,000 cells per well were seeded in a poly-d lysine plate and incubated overnight at 37° C. The next day the media was removed and 200 μL of fresh media with ^3H3-17α-hydroxy-pregnenolone (1:1000) was added. 50 μL of serially diluted compounds from a 5× plate (5 times the final desired concentration) was added. The working concentration range for active, new compounds started from a high concentration of 10 μM with 3-fold serial dilutions generating up to 10 concentrations. The serial dilution in the 100× plate (in DMSO) and the stamping of a 5× plate (in media) from the 100× plate were carried out using a TECAN liquid handling device.
The plates were incubated overnight (16 hours) at 37° C. After 16 hours, the media was removed (approximately 220 μL) and an equal amount of chloroform was added, mixed and incubated for 30 minutes at 4 degrees. The plate was centrifuged at 4000 rpm for 15 minutes at 4° C., following which the top aqueous layer was carefully removed and added into a new deep well plate. An equal volume of activated 5% charcoal was added, mixed and incubated for 30 minutes at 4° C. The plate was then centrifuged at 4000 rpm for 15 minutes at 4° C. and the top layer carefully separated, avoiding any charcoal contamination, and placed in a white, clear bottom plate (plate cat #3610, Corning Life Sciences). An equal volume of Microscint™ 40 was added and mixed well. Following the incubation for 30 minutes, readings for the radiotracer were taken using a Microbeta® trilux.

[2] = target: T2, rat CYP17 (rat testicular microsomes) (Rattus norvegicus, UniProt P11715); experiment: CYP17 inhibition assay in rat testicular microsomes; assay type: biochemical
T2 construct: Rat testis tissue was collected and disrupted with 30 strokes of a glass homogenizer; from tissue; host or cells: rat testis (microsomes)
T2 sequence (P11715 1-507): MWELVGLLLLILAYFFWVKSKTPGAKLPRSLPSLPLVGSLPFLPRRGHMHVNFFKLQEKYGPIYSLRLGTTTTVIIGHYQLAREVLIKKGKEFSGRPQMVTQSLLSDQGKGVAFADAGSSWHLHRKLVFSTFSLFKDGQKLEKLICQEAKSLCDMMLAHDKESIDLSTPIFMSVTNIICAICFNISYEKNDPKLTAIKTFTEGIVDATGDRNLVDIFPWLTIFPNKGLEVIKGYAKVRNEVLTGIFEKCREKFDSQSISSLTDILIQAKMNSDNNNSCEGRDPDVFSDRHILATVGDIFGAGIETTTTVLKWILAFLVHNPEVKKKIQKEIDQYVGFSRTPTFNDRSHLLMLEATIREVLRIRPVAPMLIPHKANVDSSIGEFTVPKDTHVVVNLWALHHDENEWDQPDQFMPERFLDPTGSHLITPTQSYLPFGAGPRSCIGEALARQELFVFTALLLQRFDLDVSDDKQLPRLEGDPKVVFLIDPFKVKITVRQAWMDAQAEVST
Protocol: CYP17 Inhibition Assay in Rat Testicular Microsomes (Rat CYP17) or Yeast Microsome Overexpressing Human CYP17
1. NADPH (Sigma): A working stock was prepared by adding 25 μL of 6.5 mM NADPH in each tube. The final concentration of NADPH used in the assay was 325 μM.
2. Potassium Phosphate Buffer: One molar (1M) solutions of K2HPO4 and KH2PO4 were prepared. Eight mL of the 1 M KH2PO4 and 1.98 mL of the 1 M K2HPO4 were combined and the pH was adjusted to 7.4.
3. ^3H3-17α-hydroxypregnenolone (American Radiolabeled Chemicals, Inc., stock 1 μCi/μL): A 1:1 dilution of ^3H3-17α-hydroxypregnenolone in ethanol was prepared by combining 100 μL ^3H3-17α-hydroxypregnenolone+100 μL ethanol for one complete 96 well plate. For the reaction, 2 μL of the diluted ^3H3-17α-hydroxypregnenolone was added in each tube, i.e., 1 μCi/reaction. 4. Microsome Isolation Buffer: The microsome isolation buffer was prepared by combining 250 mM Sucrose, 5 mM EDTA, 10 mM Tris HCl, 4 mM DTT, and adjusting to pH 7.4. 5. TEG Buffer: The TEG buffer was prepared by combining 50 mM Tris HCl, 1 mM EDTA, and 20% Glycerol. 6. Rat Testicular Microsomes: Rat testis tissue was collected and disrupted with 30 strokes of a glass homogenizer on ice with 250 μL of microsome isolation buffer, followed by centrifugation at 10,000 g for 10 minutes at 4° C. The supernatant was collected and centrifuged at 100,000 g for 45 minutes at 4° C. The pellet was dissolved in TEG Buffer and the protein was quantified. The homogenized microsome samples were then frozen at −80° C. • 7. Yeast Microsomes which overexpress the human CYP17 enzyme were obtained from Premas Biotech, India.
Potassium phosphate buffer (470 μL) was prepared as described above and was added to each well of a deep well plate. The test compound was diluted using a TECAN liquid handler and 5 μL of diluted compound was transferred to each well (96 deep well/1 mL). A solution (25 μL) of 6.5 mM NADPH was added (final concentration of 325 μM in the assay). ^3H3-17α-hydroxypregnenolone (2 μL of the working stock) was added to each tube. The plates were then pre-incubated for 15 minutes at 37° C. Following the pre-incubation, either 5 μL rat testicular microsomes (150-160 μg) or 5 μL of yeast microsomes expressing human CYP17 (1.7 pmol), was added. Incubation was at 37° C. for 60 minutes in the presence of oxygen. The plates were then placed in ice and chloroform (500 μL) was added, mixed well and incubated at 4° C. for 20 minutes. The plates were then centrifuged at 1000 rpm for 15 minutes at 4° C.
A portion (300 μL) of the aqueous solution was collected and mixed with a 5% aqueous suspension of activated charcoal (300 μL). The plates were then incubated at 4° C. for 30 minutes, after which the plates were centrifuged at 1000 rpm for 15 minutes at 4° C. From this, 125 μL of the aqueous solution was collected and plated into a 96 well plate. Microscint™ 40 [125 μL, Perkin-Elmer; containing a mixture of a polymer based on alkylphenolethoxylate (20-40%), diethanolamine-phosphoric acid ester ammonium salt (10-20%), sodium dioctyl sulphosuccinate (2.5-10%), triethyl phosphate (2.5-10%), 3,6-dimethyl-4-octyne-3,6-diol (≦2.5%), a polymer based on nonylphenolethoxylate (≦2.5%), diisopropyl naphthalene isomers (40-60%), 2,5-diphenyloxazole (≦2.5%), and 9,10-dimethylanthracene] was added and mixed well. After 30 minutes of incubation, the samples were analyzed with a MicroBeta® Trilux microplate liquid scintillation counter and luminometer (Perkin-Elmer).

Structure (SMILES)	IC50 [1]	IC50 [2]
Cn1cc(-c2ccc(C(C)(O)c3ccncc3)s2)ccc1=O (single isomer, unassigned; (+)) [Example 16, (+)-5-(5-(1-hydroxy-1-(pyridin-4-yl)ethyl)thiophen-2-yl)-1-methylpyridin-2(1H)-one]	50 to 200 nM	50 to 200 nM
CCC(O)(c1ccncc1)c1cnc(-c2cn[nH]c2)s1 (single isomer, unassigned; (+)) [Example 20, (+)-1-[2-(1H-pyrazol-4-yl)-1,3-thiazol-5-yl]-1-pyridin-4-ylpropan-1-ol]		201 to 10000 nM
CC(O)(c1ccncc1)c1ncc(-c2ccc(F)cc2)s1 (single isomer, unassigned; (+)) [Example 55, (+)-1-(5-(4-fluorophenyl)thiazol-2-yl)-1-(pyridin-4-yl)ethanol]	50 to 200 nM	< 50 nM
CCC(O)(c1ccncc1)c1cnc(-c2cn[nH]c2)s1 (single isomer, unassigned; (-)) [Example 19, (−)-1-[2-(1H-pyrazol-4-yl)-1,3-thiazol-5-yl]-1-pyridin-4-ylpropan-1-ol]	< 50 nM	< 50 nM
CC(O)(c1ccncc1)c1nc(-c2ccc(F)cc2)no1 (single isomer, unassigned; (-)) [Example 35, (−)-1-(3-(4-fluorophenyl)-1,2,4-oxadiazol-5-yl)-1-(pyridin-4-yl)ethanol]	201 to 10000 nM	< 50 nM
CC(O)(c1ccncc1)c1ncc(-c2ccc(F)cc2)s1 (single isomer, unassigned; (-)) [Example 54, (−)-1-(5-(4-fluorophenyl)thiazol-2-yl)-1-(pyridin-4-yl)ethanol]	< 50 nM	< 50 nM
CC(O)(c1ccncc1)c1ccc(-c2ccc(F)cc2)cn1 (centres unmarked) [Example 5, 1-(5-(4-fluorophenyl)-pyridin-2-yl)-1-(pyridin-4-yl)ethanol]	201 to 10000 nM	< 50 nM
COc1ccc(-c2ccc(C(C)(O)c3ccncc3)nc2)cc1F (centres unmarked) [Example 6, 1-(5-(3-fluoro-4-methoxyphenyl)-pyridin-2-yl)-1-(pyridin-4-yl)ethanol]	50 to 200 nM	< 50 nM
CC(O)(c1ccncc1)c1ccc(-c2ccc(C#N)cc2)cn1 (centres unmarked) [Example 10, 4-(6-(1-hydroxy-1-(pyridin-4-yl)-ethyl)pyridin-3-yl)-benzonitrile]	201 to 10000 nM	< 50 nM
CC(O)(c1ccncc1)c1cnc(-c2ccc(F)cc2)cn1 (centres unmarked) [Example 11, 1-(5-(4-Fluorophenyl)pyrazin-2-yl)-1-(pyridin-4-yl)ethanol]	201 to 10000 nM	< 50 nM
CC(O)(c1ccncc1)c1ccc(-c2ccc(C#N)nc2)cn1 (centres unmarked) [Example 12, 6′-(1-Hydroxy-1-(pyridin-4-yl)ethyl)-[3,3′-bipyridine]-6-carbonitrile]	50 to 200 nM	< 50 nM
CCC(O)(c1ccncc1)c1ncc(-c2ccc(F)cc2)s1 (centres unmarked) [Example 13, 1-(5-(4-Fluorophenyl)thiazol-2-yl)-1-(pyridin-4-yl)propan-1-ol]	201 to 10000 nM	< 50 nM
CCC(O)(c1ccncc1)c1cnc(-c2cn[nH]c2)s1 (centres unmarked) [Example 18, 1-(2-(1H-Pyrazol-4-yl)thiazol-5-yl)-1-(pyridin-4-yl)propan-1-ol]	< 50 nM	< 50 nM
CC(O)(c1ccncc1)c1cnc(-c2ccc(F)nc2)s1 (centres unmarked) [Example 22, 1-(2-(6-Fluoropyridin-3-yl)thiazol-5-yl)-1-(pyridin-4-yl)ethanol]		201 to 10000 nM
CC(=O)OC(C)(c1ccncc1)c1cnc(-c2ccc(F)cc2)s1 (centres unmarked) [Example 65, 1-(2-(4-Fluorophenyl)thiazol-5-yl)-1-(pyridin-4-yl)ethyl acetate]		< 50 nM
CCC(=O)OC(C)(c1ccncc1)c1cnc(-c2ccc(F)cc2)s1 (centres unmarked) [Example 66, 1-(2-(4-fluorophenyl)thiazol-5-yl)-1-(pyridin-4-yl)ethyl propionate]		< 50 nM
CCCC(=O)OC(C)(c1ccncc1)c1cnc(-c2ccc(F)cc2)s1 (centres unmarked) [Example 67, 1-(2-(4-fluorophenyl)thiazol-5-yl)-1-(pyridin-4-yl)ethyl butyrate]		< 50 nM
